Legend:
[1] = Positive chronotropic activity in isolated guinea pig right atrium relative to control; assay type: functional, Cavia porcellus, Cardiac atrium
[2] = Negative inotropic activity assessed as decrease in developed tension in isolated guinea pig left atrium; assay type: functional, tissue-based; details: Cavia porcellus, Cardiac atrium
[3] = test system: Aorta; assay: Inhibition of calcium-induced contraction of potassium ion depolarized guinea pig aortic strips at 100 uM; assay type: functional; details: Cavia porcellus
[4] = Activity against alternating current-induced arrhythmia in guinea pig left atrium at 10 uM; assay type: functional, Cavia porcellus, Cardiac atrium
[5] = Negative inotropic activity assessed as decrease in developed tension in isolated guinea pig left atrium at 100 uM relative to control; assay type: functional, Cavia porcellus, Cardiac atrium; parameters: scale not given: the % may be the effect or the level left
[6] = Negative inotropic activity assessed as decrease in developed tension in isolated guinea pig left atrium at 1 uM relative to control; assay type: functional, Cavia porcellus, Cardiac atrium; parameters: scale not given: the % may be the effect or the level left
[7] = Activity against alternating current-induced arrhythmia in guinea pig left atrium at 100 uM; assay type: functional, Cavia porcellus, Cardiac atrium
[8] = Negative chronotropic activity assessed as decrease in atrial rate in isolated guinea pig right atrium at 100 uM relative to control; assay type: functional, Cavia porcellus, Cardiac atrium; parameters: scale not given: the % may be the effect or the level left
[9] = Activity against alternating current-induced arrhythmia in guinea pig left atrium; assay type: functional, tissue-based; details: Cavia porcellus, Cardiac atrium
[10] = test system: Heart; assay: Intraventricular conduction time in spontaneously beating Langendorff-perfused guinea pig heart at 1 nM; assay type: functional, Cavia porcellus
[11] = test system: Heart; assay: Atrioventricular conduction time in spontaneously beating Langendorff-perfused guinea pig heart at 0.1 uM; assay type: functional, Cavia porcellus
[12] = test system: Heart; assay: Ventricular action potential duration in spontaneously beating Langendorff-perfused guinea pig heart at 1 nM; assay type: functional, Cavia porcellus
[13] = test system: Heart; assay: Ventricular action potential duration in spontaneously beating Langendorff-perfused guinea pig heart at 10 nM; assay type: functional, Cavia porcellus
[14] = test system: Heart; assay: Ventricular action potential duration in spontaneously beating Langendorff-perfused guinea pig heart at 10 uM; assay type: functional, Cavia porcellus
[15] = test system: Heart; assay: Heart rate in spontaneously beating Langendorff-perfused guinea pig heart at 0.1uM; assay type: functional, Cavia porcellus; parameters: unit: beats/min
[16] = test system: Heart; assay: Heart rate in spontaneously beating Langendorff-perfused guinea pig heart at 1 uM; assay type: functional, Cavia porcellus; parameters: unit not given here
[17] = test system: Heart; assay: Heart rate in spontaneously beating Langendorff-perfused guinea pig heart at 10 uM; assay type: functional, Cavia porcellus; parameters: unit not given here
[18] = test system: Heart; assay: Heart rate in spontaneously beating Langendorff-perfused guinea pig heart at 1 nM; assay type: functional, Cavia porcellus; parameters: unit not given here
[19] = test system: Heart; assay: Intraventricular conduction time in spontaneously beating Langendorff-perfused guinea pig heart at 10 nM; assay type: functional, Cavia porcellus
[20] = Negative inotropic activity assessed as decrease in developed tension in isolated guinea pig left atrium at 5 uM relative to control; assay type: functional, Cavia porcellus, Cardiac atrium; parameters: scale not given: the % may be the effect or the level left
[21] = test system: Heart; assay: Heart rate in spontaneously beating Langendorff-perfused guinea pig heart at 10 nM; assay type: functional, Cavia porcellus; parameters: unit not given here
[22] = test system: Heart; assay: Atrioventricular conduction time in spontaneously beating Langendorff-perfused guinea pig heart at 10 uM; assay type: functional, Cavia porcellus
[23] = test system: Heart; assay: Atrioventricular conduction time in spontaneously beating Langendorff-perfused guinea pig heart at 10 nM; assay type: functional, Cavia porcellus
[24] = test system: Heart; assay: Intraventricular conduction time in spontaneously beating Langendorff-perfused guinea pig heart at 10 uM; assay type: functional, Cavia porcellus
[25] = test system: Heart; assay: Ventricular action potential duration in spontaneously beating Langendorff-perfused guinea pig heart at 0.1 uM; assay type: functional, Cavia porcellus
[26] = test system: Heart; assay: Ventricular action potential duration in spontaneously beating Langendorff-perfused guinea pig heart at 1 uM; assay type: functional, Cavia porcellus
[27] = test system: Heart; assay: Atrioventricular conduction time in spontaneously beating Langendorff-perfused guinea pig heart at 1 uM; assay type: functional, Cavia porcellus
[28] = test system: Heart; assay: Intraventricular conduction time in spontaneously beating Langendorff-perfused guinea pig heart at 0.1 uM; assay type: functional, Cavia porcellus
[29] = test system: Heart; assay: Atrioventricular conduction time in spontaneously beating Langendorff-perfused guinea pig heart at 1 nM; assay type: functional, Cavia porcellus
[30] = test system: Heart; assay: Intraventricular conduction time in spontaneously beating Langendorff-perfused guinea pig heart at 1 uM; assay type: functional, Cavia porcellus
[31] = Activity against alternating current-induced arrhythmia in guinea pig left atrium at 50 uM; assay type: functional, Cavia porcellus, Cardiac atrium
[32] = Negative inotropic activity assessed as decrease in developed tension in isolated guinea pig left atrium at 50 uM relative to control; assay type: functional, Cavia porcellus, Cardiac atrium; parameters: scale not given: the % may be the effect or the level left
[33] = Negative chronotropic activity assessed as decrease in atrial rate in isolated guinea pig right atrium at 50 uM relative to control; assay type: functional, Cavia porcellus, Cardiac atrium; parameters: scale not given: the % may be the effect or the level left

| Compound | EC50 [2] [nM] | inhibition at 100 µM [3] [%] | Activity [5] [%] | Activity [7] [%] | Activity [8] [%] | EC50 [9] [nM] | Activity [10] [ms] | Activity [11] [ms] | Activity [12] [ms] | Activity [13] [ms] | Activity [14] [ms] | Activity [15] | Activity [16] | Activity [17] | Activity [18] | Activity [19] [ms] | Activity [21] | Activity [22] [ms] | Activity [23] [ms] | Activity [24] [ms] | other results |
| --- | --- | --- | --- | --- | --- | --- | --- | --- | --- | --- | --- | --- | --- | --- | --- | --- | --- | --- | --- | --- | --- |
| Nc1ccc(C(=O)NC[C@@H]2CCCN3CCCC[C@H]23)cc1 | 460 | 3 | 95 | – | – | – | – | – | – | – | – | – | – | – | – | – | – | – | – | – | Activity [1]: 13%; Activity [4]: 28% |
| O=C(NC[C@@H]1CCCN2CCCC[C@H]12)c1ccc([N+](=O)[O-])cc1 | 38 | 18 | – | 18 | 28 | – | – | – | – | – | – | – | – | – | – | – | – | – | – | – | Activity [6]: 74% |
| Cc1cc(N)cc(C)c1OC[C@@H]1CCCN2CCCC[C@H]12 | 290 | 15 | – | 166 | 38 | 970 | 30 | 64 | 160 | 170 | 205 | 184 | 180 | 175 | 192 | 33 | 190 | 70 | 60 | 32 | Activity [20]: 83%; Activity [25]: 182 ms; Activity [26]: 194 ms; Activity [27]: 66 ms; Activity [28]: 31 ms; Activity [29]: 58 ms; Activity [30]: 32 ms |
| Cc1cc(C(=O)c2ccccc2)cc(C)c1OC[C@@H]1CCCN2CCCC[C@H]12 | 160 | 17 | – | – | – | 6750 | – | – | – | – | – | – | – | – | – | – | – | – | – | – | Activity [31]: 64%; Activity [32]: 94%; Activity [33]: 41% |
| CCCCc1oc2ccccc2c1C(=O)c1cc(I)c(OCCN(CC)CC)c(I)c1 [AMIODARONE] | – | 3 | 30 | 10 | 72 | – | 20 | 55 | 161 | 161 | 182 | 171 | 164 | 132 | 187 | 20 | 180 | 58 | 55 | 24 | Activity [25]: 169 ms; Activity [26]: 174 ms; Activity [27]: 56 ms; Activity [28]: 21 ms; Activity [29]: 54 ms; Activity [30]: 22 ms |
